Data from patent publication US10689354B2, “Aminoazole derivative” (Teijin Pharma Limited, priority 2015, dated 2020).

Key:
[1] = target: T1, androgen receptor (AR-LBD) (Rattus norvegicus, UniProt P15207); test: Evaluation of androgen receptor affinity (PolarScreen Androgen Receptor Competitor Assay Kit, Red; fluorescence polarization); conditions: 22° C. for 5 hours, relative to binding rate of 1 μM DHT, read-out: AR affinity (pEC50) (converted)
T1 construct: 5 μL of 2×AR-LBD/Fluoromone AL Red Complex contained in the kit; purchased Invitrogen
T1 sequence (P15207 651-882 limits assumed): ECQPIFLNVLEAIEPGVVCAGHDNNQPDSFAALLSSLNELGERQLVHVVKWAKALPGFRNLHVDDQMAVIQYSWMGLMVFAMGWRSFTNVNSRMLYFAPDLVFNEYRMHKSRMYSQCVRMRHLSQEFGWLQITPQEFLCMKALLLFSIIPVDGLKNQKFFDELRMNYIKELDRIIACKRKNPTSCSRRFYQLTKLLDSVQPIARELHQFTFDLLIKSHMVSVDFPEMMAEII
In short: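 Fluorescence polarization read-out after 5 h at 22° C of compound with a red-fluorophore-labelled AR-LBD complex. Displacement is scaled against 1 μM DHT, and the log reciprocal of the concentration reaching half that effect gives pEC50 via four-parameter curve fitting.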

human androgen receptor = target: T2, human androgen receptor (Homo sapiens, UniProt P10275); test: Reporter assay of an androgen receptor responsive sequence (luciferase, transiently transfected HEK293 cells); type: cell-based; conditions: 24 hours incubation, relative to activity of 100 nM DHT, read-out: AR transcriptive activity (pEC50) (converted)
T2 construct: expressed in transfected cells; host or cells: HEK293
T2 sequence (P10275 1-920): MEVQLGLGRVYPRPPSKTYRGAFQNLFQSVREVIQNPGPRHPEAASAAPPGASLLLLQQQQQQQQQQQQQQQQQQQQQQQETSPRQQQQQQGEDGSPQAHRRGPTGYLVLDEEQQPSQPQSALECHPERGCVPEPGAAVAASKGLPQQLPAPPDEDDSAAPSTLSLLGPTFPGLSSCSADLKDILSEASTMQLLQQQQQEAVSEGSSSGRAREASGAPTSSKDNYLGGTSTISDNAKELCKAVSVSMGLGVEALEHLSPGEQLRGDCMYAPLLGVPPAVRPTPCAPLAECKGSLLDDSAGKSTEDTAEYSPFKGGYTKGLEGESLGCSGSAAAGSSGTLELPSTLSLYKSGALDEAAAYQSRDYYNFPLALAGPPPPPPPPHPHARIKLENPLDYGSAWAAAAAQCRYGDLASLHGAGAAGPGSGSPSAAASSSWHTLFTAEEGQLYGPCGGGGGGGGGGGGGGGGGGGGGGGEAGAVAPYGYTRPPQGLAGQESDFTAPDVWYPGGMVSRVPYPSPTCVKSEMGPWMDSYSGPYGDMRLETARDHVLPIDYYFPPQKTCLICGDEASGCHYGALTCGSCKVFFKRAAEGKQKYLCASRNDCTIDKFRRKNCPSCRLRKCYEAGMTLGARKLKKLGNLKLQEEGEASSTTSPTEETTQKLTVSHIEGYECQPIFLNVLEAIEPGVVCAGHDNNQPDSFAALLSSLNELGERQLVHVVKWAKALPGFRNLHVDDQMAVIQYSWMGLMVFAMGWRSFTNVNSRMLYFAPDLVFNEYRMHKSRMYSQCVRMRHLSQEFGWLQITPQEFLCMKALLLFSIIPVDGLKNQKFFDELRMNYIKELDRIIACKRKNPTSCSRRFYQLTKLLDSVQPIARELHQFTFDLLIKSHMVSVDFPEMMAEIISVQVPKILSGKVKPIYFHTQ
In short: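 HEK293 cells transiently transfected for 3 h with ARE-firefly luciferase, full-length human AR and TK-Renilla plasmids, then exposed to compound for 24 h at 37 °C in 5% charcoal-treated FBS/DMEM. Dual-Glo luminescence read; pEC50 from 4-parameter fit relative to 100 nM DHT.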

EC50 [1] [nM] | EC50 (human androgen receptor) [nM] | SMILES
50.1 | 398 | Cc1sc(N(CCc2ccc(Cl)c(Cl)c2)Cc2ccccc2)nc1C(=O)NS(C)(=O)=O [Compound 710, 2-[benzyl-[2-(3,4-dichlorophenyl)ethyl]amino]-5-methyl-N-methylsulfonyl-thiazole-4-carboxamide]
31.6 | 251 | CCS(=O)(=O)NC(=O)c1nc(N(CCc2ccc(C#N)cc2)Cc2ccc(Cl)cc2)sc1C [Compound 713, 2-[(4-chlorophenyl)methyl-[2-(4-cyanophenyl)ethyl]amino]-N-ethylsulfonyl-5-methyl-thiazole-4-carboxamide]
79.4 | 1260 | Cc1sc(N(CCc2ccc(C#N)cc2)Cc2ccc(Cl)cc2)nc1C(=O)NS(=O)(=O)C1CC1 [Compound 714, 2-[(4-chlorophenyl)methyl-[2-(4-cyanophenyl)ethyl]amino]-N-cyclopropylsulfonyl-5-methyl-thiazole-4-carboxamide]
126 | 2510 | Cc1sc(N(CCc2ccc(C#N)cc2)Cc2ccc(Cl)cc2)nc1C(=O)NS(=O)(=O)C(F)(F)F [Compound 715, 2-[(4-chlorophenyl)methyl-[2-(4-cyanophenyl)ethyl]amino]-5-methyl-N-(trifluoromethylsulfonyl)thiazole-4-carboxamide]
1000 | > 10000 | CCS(=O)(=O)NC(=O)c1nc(N(CCc2ccc(C#N)cc2)CC2CCCCC2)sc1C [Compound 717, 2-[2-(4-cyanophenyl)ethyl-(cyclohexylmethyl)amino]-N-ethylsulfonyl-5-methyl-thiazole-4-carboxamide]
501 | > 10000 | Cc1sc(N(CCC2CCCCC2)Cc2ccc(Cl)cc2)nc1C(=O)NS(=O)(=O)C(F)(F)F [Compound 723, 2-[(4-chlorophenyl)methyl-(2-cyclohexylethyl)amino]-5-methyl-N-(trifluoromethylsulfonyl)thiazole-4-carboxamide]
100 | > 10000 | Cc1sc(N(CCc2ccc(C#N)cc2)CC2CCCCC2)nc1C(=O)NS(=O)(=O)Cc1cccnc1 [Compound 725, 2-[2-(4-cyanophenyl)ethyl-(cyclohexylmethyl)amino]-5-methyl-N-(3-pyridylmethylsulfonyl)thiazole-4-carboxamide]
31.6 | 1000 | CCS(=O)(=O)NC(=O)c1nc(N(CCc2ccc(C#N)cc2)Cc2ccc(OC(F)(F)F)cc2)sc1C [Compound 726, 2-[2-(4-cyanophenyl)ethyl-[[4-(trifluoromethoxy)phenyl]methyl]amino]-N-ethylsulfonyl-5-methyl-thiazole-4-carboxamide]
126 | 5010 | CCS(=O)(=O)NC(=O)c1nc(N(CCC2CCCCC2)Cc2ccc(Cl)cc2)sc1C [Compound 729, 2-[(4-chlorophenyl)methyl-(2-cyclohexylethyl)amino]-N-ethylsulfonyl-5-methyl-thiazole-4-carboxamide]
100 | > 10000 | Cc1sc(N(CCC2CCCCC2)Cc2ccc(OC(F)(F)F)cc2)nc1C(=O)NS(C)(=O)=O [Compound 732, 2-[2-cyclohexylethyl-[[4-(trifluoromethoxy)phenyl]methyl]amino]-5-methyl-N-methylsulfonyl-thiazole-4-carboxamide]
1000 | > 10000 | Cc1sc(N(CCC2CCCCC2)Cc2ccc(OC(F)(F)F)cc2)nc1C(=O)NS(=O)(=O)C1CC1 [Compound 734, 2-[2-cyclohexylethyl-[[4-(trifluoromethoxy)phenyl]methyl]amino]-N-cyclopropylsulfonyl-5-methyl-thiazole-4-carboxamide]
1000 | > 10000 | Cc1sc(N(CCC2CCCCC2)Cc2ccc(OC(F)(F)F)cc2)nc1C(=O)NS(=O)(=O)Cc1cccc(F)c1 [Compound 735, 2-[2-cyclohexylethyl-[[4-(trifluoromethoxy)phenyl]methyl]amino]-N-[(3-fluorophenyl)methylsulfonyl]-5-methyl-thiazole-4-carboxamide]

The remaining lines, values behind:

SMILES | EC50 [1] [nM] | EC50 (human androgen receptor) [nM]
Cc1sc(N(CCn2cc(Cl)cn2)Cc2ccccc2)nc1C(=O)NS(C)(=O)=O [Compound 709, 2-[benzyl-[2-(4-chloropyrazol-1-yl)ethyl]amino]-5-methyl-N-methylsulfonyl-thiazole-4-carboxamide] | 200 | 631
Cc1sc(N(CCc2ccc(C#N)cc2)CC2CCCCC2)nc1C(=O)NS(C)(=O)=O [Compound 716, 2-[2-(4-cyanophenyl)ethyl-(cyclohexylmethyl)amino]-5-methyl-N-methylsulfonyl-thiazole-4-carboxamide] | 631 | > 10000
Cc1sc(N(CCc2ccc(C#N)cc2)Cc2ccc(OC(F)(F)F)cc2)nc1C(=O)NS(=O)(=O)C1CC1 [Compound 721, 2-[2-(4-cyanophenyl)ethyl-[[4-(trifluoromethoxy)phenyl]methyl]amino]-N-cyclopropylsulfonyl-5-methyl-thiazole-4-carboxamide] | 158 | > 10000
Cc1sc(N(CCc2ccc(C#N)cc2)Cc2ccc(OC(F)(F)F)cc2)nc1C(=O)NS(=O)(=O)C(F)(F)F [Compound 722, 2-[2-(4-cyanophenyl)ethyl-[[4-(trifluoromethoxy)phenyl]methyl]amino]-5-methyl-N-(trifluoromethylsulfonyl)thiazole-4-carboxamide] | 251 | > 10000
Cc1sc(N(CCC2CCCCC2)Cc2ccc(OC(F)(F)F)cc2)nc1C(=O)NS(=O)(=O)C(F)(F)F [Compound 724, 2-[2-cyclohexylethyl-[[4-(trifluoromethoxy)phenyl]methyl]amino]-5-methyl-N-(trifluoromethylsulfonyl)thiazole-4-carboxamide] | 501 | > 10000
Cc1sc(N(CCc2ccc(C#N)cc2)Cc2ccc(OC(F)(F)F)cc2)nc1C(=O)NS(=O)(=O)Cc1cccc(F)c1 [Compound 727, 2-[2-(4-cyanophenyl)ethyl-[[4-(trifluoromethoxy)phenyl]methyl]amino]-N-[(3-fluorophenyl)methylsulfonyl]-5-methyl-thiazole-4-carboxamide] | 200 | > 10000
Cc1sc(N(CCC2CCCCC2)Cc2ccc(Cl)cc2)nc1C(=O)NS(C)(=O)=O [Compound 728, 2-[(4-chlorophenyl)methyl-(2-cyclohexylethyl)amino]-5-methyl-N-methylsulfonyl-thiazole-4-carboxamide] | 39.8 | 631
Cc1sc(N(CCC2CCCCC2)Cc2ccc(Cl)cc2)nc1C(=O)NS(=O)(=O)Cc1cccc(F)c1 [Compound 731, 2-[(4-chlorophenyl)methyl-(2-cyclohexylethyl)amino]-N-[(3-fluorophenyl)methylsulfonyl]-5-methyl-thiazole-4-carboxamide] | 501 | > 10000
CCS(=O)(=O)NC(=O)c1nc(N(CCC2CCCCC2)Cc2ccc(OC(F)(F)F)cc2)sc1C [Compound 733, 2-[2-cyclohexylethyl-[[4-(trifluoromethoxy)phenyl]methyl]amino]-N-ethylsulfonyl-5-methyl-thiazole-4-carboxamide] | 200 | > 10000
Cc1sc(N(CCn2cc(C#N)cn2)Cc2ccc(Cl)cc2)nc1C(=O)NS(C)(=O)=O [Compound 736, 2-[(4-chlorophenyl)methyl-[2-(4-cyanopyrazol-1-yl)ethyl]amino]-5-methyl-N-methylsulfonyl-thiazole-4-carboxamide] | 200 | 501
CNC(=O)c1ccc(CCN(Cc2ccccc2)c2nc(C(=O)NS(C)(=O)=O)c(C)s2)cc1 [Compound 738, 2-[benzyl-[2-[4-(methylcarbamoyl)phenyl]ethyl]amino]-5-methyl-N-methylsulfonyl-thiazole-4-carboxamide] | 501 | 6310
